Measurements taken from the supplement of paper PMC10307832.

Experiments:
Test in all cases: relative viability (nuclei count vs DMSO), 5 days (fraction); higher = more cells survive
[1] = compound: Nc1ccccc1NC(=O)c1ccc(CNC(=O)OCc2cccnc2)cc1 [Entinostat] + CCNC(=O)c1noc(-c2cc(C(C)C)c(O)cc2O)c1-c1ccc(CN2CCOCC2)cc1 [Luminespib] (partner 0.01 µM)
How it was run: (§1)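 Relative viability divides the nuclei count in treated wells by that in vehicle wells. Lung cancer cell lines were seeded in 1536-well plates, dosed by pin tool the next day, and fixed and stained after 5 days in one step with final 0.05% Triton X-100, 1% formaldehyde and 1 ug/ml Hoechst. Dosing was a single drug or a fixed anchor-drug dose plus five library-drug doses (not always all listed) in √10 steps, and values are medians of duplicate plates imaged at 4×.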

[2] = compound: CN1CCC(CNc2ccc3ncc(-c4cccc(OC(F)(F)F)c4)n3n2)CC1 [SGI-1776] + C[C@]1(O)C[C@@H](c2nc(-c3ccc4ccc(-c5ccccc5)nc4c3)c3c(N)nccn32)C1 [Linsitinib] (partner 1 µM)
How it was run: as §1

[3] = compound: Nc1ccccc1NC(=O)c1ccc(CNC(=O)OCc2cccnc2)cc1 [Entinostat] + COc1cccc2cc(-c3nc([C@H]4CC[C@H](C(=O)O)CC4)n4ncnc(N)c34)[nH]c12 [OSI-027] (partner 0.5 µM)
How it was run: as §1

[4] = compound: Nc1ccccc1NC(=O)c1ccc(CNC(=O)OCc2cccnc2)cc1 [Entinostat] + Nc1nc2[nH]cc(CCc3ccc(C(=O)N[C@@H](CCC(=O)O)C(=O)O)cc3)c2c(=O)[nH]1 [Pemetrexed] (partner 0.2 µM)
How it was run: as §1

NCI-H322M
relative viability ([1]; first compound 0.02 µM): 0.909
relative viability ([1]; first compound 0.06325 µM): 1.13
relative viability ([1]; first compound 0.2 µM): 1.06
relative viability ([1]; first compound 0.6325 µM): 1.1
relative viability ([1]; first compound 2 µM): 1.03
relative viability ([2]; first compound 0.08 µM): 1.01
relative viability ([2]; first compound 0.8 µM): 1.04
relative viability ([2]; first compound 2.53 µM): 0.933
relative viability ([2]; first compound 8 µM): 0.774
relative viability ([3]; first compound 0.02 µM): 0.608
relative viability ([3]; first compound 0.06325 µM): 0.54
relative viability ([3]; first compound 0.2 µM): 0.558
relative viability ([3]; first compound 0.6325 µM): 0.483
relative viability ([3]; first compound 2 µM): 0.371
relative viability ([4]; first compound 0.02 µM): 0.66
relative viability ([4]; first compound 0.06325 µM): 0.692
relative viability ([4]; first compound 0.2 µM): 0.716
relative viability ([4]; first compound 0.6325 µM): 0.599
relative viability ([4]; first compound 2 µM): 0.583

NCI-H358
relative viability ([1]; first compound 0.02 µM): 0.48
relative viability ([1]; first compound 0.06325 µM): 0.484
relative viability ([1]; first compound 0.2 µM): 0.407
relative viability ([1]; first compound 0.6325 µM): 0.238
relative viability ([1]; first compound 2 µM): 0.159
relative viability ([2]; first compound 0.08 µM): 0.725
relative viability ([2]; first compound 0.8 µM): 0.756
relative viability ([2]; first compound 2.53 µM): 0.758
relative viability ([2]; first compound 8 µM): 0.388
relative viability ([3]; first compound 0.02 µM): 0.879
relative viability ([3]; first compound 0.06325 µM): 0.992
relative viability ([3]; first compound 0.2 µM): 0.796
relative viability ([3]; first compound 0.6325 µM): 0.496
relative viability ([3]; first compound 2 µM): 0.169
relative viability ([4]; first compound 0.02 µM): 0.163
relative viability ([4]; first compound 0.06325 µM): 0.168
relative viability ([4]; first compound 0.2 µM): 0.158
relative viability ([4]; first compound 0.6325 µM): 0.128
relative viability ([4]; first compound 2 µM): 0.135

NCI-H441
relative viability ([1]; first compound 0.02 µM): 0.401
relative viability ([1]; first compound 0.06325 µM): 0.34
relative viability ([1]; first compound 0.2 µM): 0.29
relative viability ([1]; first compound 0.6325 µM): 0.245
relative viability ([1]; first compound 2 µM): 0.176
relative viability ([2]; first compound 0.08 µM): 0.506
relative viability ([2]; first compound 0.8 µM): 0.588
relative viability ([2]; first compound 2.53 µM): 0.645
relative viability ([2]; first compound 8 µM): 0.354
relative viability ([3]; first compound 0.02 µM): 0.592
relative viability ([3]; first compound 0.06325 µM): 0.562
relative viability ([3]; first compound 0.2 µM): 0.592
relative viability ([3]; first compound 0.6325 µM): 0.308
relative viability ([3]; first compound 2 µM): 0.233
relative viability ([4]; first compound 0.02 µM): 0.287
relative viability ([4]; first compound 0.06325 µM): 0.29
relative viability ([4]; first compound 0.2 µM): 0.255
relative viability ([4]; first compound 0.6325 µM): 0.227
relative viability ([4]; first compound 2 µM): 0.166

NCI-H460
relative viability ([1]; first compound 0.02 µM): 0.0255
relative viability ([1]; first compound 0.06325 µM): 0.0353
relative viability ([1]; first compound 0.2 µM): 0.0291
relative viability ([1]; first compound 0.6325 µM): 0.0258
relative viability ([1]; first compound 2 µM): 0.0328
relative viability ([2]; first compound 0.08 µM): 0.683
relative viability ([2]; first compound 0.8 µM): 0.859
relative viability ([2]; first compound 2.53 µM): 0.785
relative viability ([2]; first compound 8 µM): 0.459
relative viability ([3]; first compound 0.02 µM): 0.606
relative viability ([3]; first compound 0.06325 µM): 0.575
relative viability ([3]; first compound 0.2 µM): 0.335
relative viability ([3]; first compound 0.6325 µM): 0.0521
relative viability ([3]; first compound 2 µM): 0.0268
relative viability ([4]; first compound 0.02 µM): 0.0727
relative viability ([4]; first compound 0.06325 µM): 0.068
relative viability ([4]; first compound 0.2 µM): 0.076
relative viability ([4]; first compound 0.6325 µM): 0.0606
relative viability ([4]; first compound 2 µM): 0.041

NCI-H520
relative viability ([1]; first compound 0.02 µM): 0.192
relative viability ([1]; first compound 0.06325 µM): 0.225
relative viability ([1]; first compound 0.2 µM): 0.227
relative viability ([1]; first compound 0.6325 µM): 0.281
relative viability ([1]; first compound 2 µM): 0.228
relative viability ([2]; first compound 0.08 µM): 1.17
relative viability ([2]; first compound 0.8 µM): 1.02
relative viability ([2]; first compound 2.53 µM): 1.05
relative viability ([2]; first compound 8 µM): 0.848
relative viability ([3]; first compound 0.02 µM): 0.335
relative viability ([3]; first compound 0.06325 µM): 0.277
relative viability ([3]; first compound 0.2 µM): 0.274
relative viability ([3]; first compound 0.6325 µM): 0.385
relative viability ([3]; first compound 2 µM): 0.407
relative viability ([4]; first compound 0.02 µM): 0.644
relative viability ([4]; first compound 0.06325 µM): 0.712
relative viability ([4]; first compound 0.2 µM): 0.875
relative viability ([4]; first compound 0.6325 µM): 0.689
relative viability ([4]; first compound 2 µM): 0.418

NCI-H596
relative viability ([1]; first compound 0.02 µM): 0.836
relative viability ([1]; first compound 0.06325 µM): 0.935
relative viability ([1]; first compound 0.2 µM): 0.992
relative viability ([1]; first compound 0.6325 µM): 0.905
relative viability ([1]; first compound 2 µM): 0.597
relative viability ([2]; first compound 0.08 µM): 1.05
relative viability ([2]; first compound 0.8 µM): 0.999
relative viability ([2]; first compound 2.53 µM): 0.981
relative viability ([2]; first compound 8 µM): 0.943
relative viability ([3]; first compound 0.02 µM): 0.716
relative viability ([3]; first compound 0.06325 µM): 0.804
relative viability ([3]; first compound 0.2 µM): 0.708
relative viability ([3]; first compound 0.6325 µM): 0.443
relative viability ([3]; first compound 2 µM): 0.412
relative viability ([4]; first compound 0.02 µM): 0.499
relative viability ([4]; first compound 0.06325 µM): 0.514
relative viability ([4]; first compound 0.2 µM): 0.528
relative viability ([4]; first compound 0.6325 µM): 0.439
relative viability ([4]; first compound 2 µM): 0.446

NCI-H647
relative viability ([1]; first compound 0.02 µM): 0.223
relative viability ([1]; first compound 0.06325 µM): 0.182
relative viability ([1]; first compound 0.2 µM): 0.23
relative viability ([1]; first compound 0.6325 µM): 0.177
relative viability ([1]; first compound 2 µM): 0.133
relative viability ([2]; first compound 0.08 µM): 1.29
relative viability ([2]; first compound 0.8 µM): 1.16
relative viability ([2]; first compound 2.53 µM): 0.978
relative viability ([2]; first compound 8 µM): 0.739
relative viability ([3]; first compound 0.02 µM): 0.677
relative viability ([3]; first compound 0.06325 µM): 0.537
relative viability ([3]; first compound 0.2 µM): 0.562
relative viability ([3]; first compound 0.6325 µM): 0.302
relative viability ([3]; first compound 2 µM): 0.179
relative viability ([4]; first compound 0.02 µM): 0.192
relative viability ([4]; first compound 0.06325 µM): 0.184
relative viability ([4]; first compound 0.2 µM): 0.161
relative viability ([4]; first compound 0.6325 µM): 0.0878
relative viability ([4]; first compound 2 µM): 0.0714

NCI-H650
relative viability ([1]; first compound 0.02 µM): 0.824
relative viability ([1]; first compound 0.06325 µM): 0.76
relative viability ([1]; first compound 0.2 µM): 0.829
relative viability ([1]; first compound 0.6325 µM): 0.672
relative viability ([1]; first compound 2 µM): 0.427
relative viability ([2]; first compound 0.08 µM): 1.07
relative viability ([2]; first compound 0.8 µM): 0.952
relative viability ([2]; first compound 2.53 µM): 0.686
relative viability ([2]; first compound 8 µM): 0.727
relative viability ([3]; first compound 0.02 µM): 0.614
relative viability ([3]; first compound 0.06325 µM): 0.614
relative viability ([3]; first compound 0.2 µM): 0.586
relative viability ([3]; first compound 0.6325 µM): 0.489
relative viability ([3]; first compound 2 µM): 0.261
relative viability ([4]; first compound 0.02 µM): 0.952
relative viability ([4]; first compound 0.06325 µM): 0.951
relative viability ([4]; first compound 0.2 µM): 0.833
relative viability ([4]; first compound 0.6325 µM): 0.794
relative viability ([4]; first compound 2 µM): 0.353
